# Laboratory results reported in ChEMBL document CHEMBL1151573, “Cyclic homopentapeptides 3. Synthetic modifications to the capreomycins and tuberactinomycins: Compounds with activity against methicillin-resistant Staphylococcus aureus and vancomycin-resistant enterococci” (1997).
# Numbered stars: 1 amine (or outer) side, 2 acyl side, 3 side chain; on linkers, the order of the positions; unused ones are H or OH. Bridge positions count the residues as written; N and C are the ends. Square brackets hold non-standard residues; d marks the D form. Side chains are listed from the residue outwards. Peptide text beside a SMILES is read from it. * marks the point of attachment. ξ: configuration not given here. NH(4-cHex-phenyl) = c1cc(C2CCCCC2)ccc1N*; X1 = NC1=NCCC([C@H](N[*:1])C(=O)[*:2])N1; X2 = N=C1NCCC([C@H](N[*:1])C(=O)[*:2])N1; ΔAla(Z-3-ureido) = NC(=O)N/C=C(\N)C(=O)O; ΔDap(Z) = O=C(/C(=C/N[*:3])N[*:1])[*:2]; β3hR = N=C(N)NCCC[C@H](N)CC(=O)O; β3hOrn = NCCC[C@H](N)CC(=O)*; ξβ3hOrn = NCCCC(N)CC(=O)*; Dap = NC[C@H](N)C(=O)O; X3 = NCC[C@H](O)C(=O)*; CO = O=C([*:1])[*:2]; ξDap = NCC(N)C(=O)O
# Columns and labels:
# Staphylococcus aureus = assay: Antibacterial activity against Staphylococcus aureus (erythromycin- resistant, methicillin-resistant, ciprofloxacin- resistant) was determined; format: functional
# [1] = Antibacterial activity against Enterococcus faecalis (vancomycin-resistant, methicillin-resistant, ciprofloxacin-resistant); format: functional, erythromycin faecalis
# [2] = Antibacterial activity against Enterococcus faecium (vancomycin-resistant, erythromycin-resistant, ciprofloxacin-resistant); format: functional
Compound,MIC (Staphylococcus aureus) [µg/mL],MIC [1] [µg/mL],MIC [2] [µg/mL]
NC1=NC([C@H]2NC(=O)/C(=C/NC(=O)Nc3ccc(C4CCCCC4)cc3)NC(=O)[C@@H](CO)NC(=O)[C@@H](CO)NC(=O)C(NC(=O)Nc3ccc(Br)cc3)CNC2=O)CCN1 (stereo not given in full),12.5,12.5,6.25
CN[C@H](CC(C)C)C(=O)N[C@H]1C(=O)N[C@@H](CC(N)=O)C(=O)N[C@H]2C(=O)N[C@H]3C(=O)N[C@H](C(=O)N[C@H](C(=O)O)c4cc(O)cc(O)c4-c4cc3ccc4O)[C@H](O)c3ccc(c(Cl)c3)Oc3cc2cc(c3O[C@@H]2O[C@H](CO)[C@@H](O)[C@H](O)[C@H]2O[C@H]2C[C@](C)(N)[C@H](O)[C@H](C)O2)Oc2ccc(cc2Cl)[C@H]1O [VANCOMYCIN],0.78,> 100,> 100
NC(N)=NCCC[C@H](N)CC(=O)NC[C@@H]1NC(=O)[C@H](CO)NC(=O)C(N)CNC(=O)[C@H](C2CCN=C(N)N2)NC(=O)/C(=C/NC(=O)Nc2ccc(C3CCCCC3)cc2)NC1=O (stereo partly drawn) (H-[ξDap]S[Dap](β3hR)[ΔDap(Z)]([CO-NH(4-cHex-phenyl)])[X1]; lactam 1-C),1.56,3.12,3.12
NCCC[C@H](N)CC(=O)NC[C@@H]1NC(=O)[C@H](CO)NC(=O)C(N)CNC(=O)[C@H](C2CCN=C(N)N2)NC(=O)/C(=C/NC(=O)Nc2ccc(C3CCCCC3)cc2)NC1=O (stereo partly drawn) (H-[ξDap]S[Dap](β3hOrn)[ΔDap(Z)]([CO-NH(4-cHex-phenyl)])[X1]; lactam 1-C),1.56,3.12,3.12
NCCC[C@H](N)CC(=O)NC[C@@H]1NC(=O)[C@H](CO)NC(=O)C(NC(=O)[C@@H](O)CCN)CNC(=O)[C@H](C2CCN=C(N)N2)NC(=O)/C(=C/NC(=O)Nc2ccc(C3CCCCC3)cc2)NC1=O (stereo partly drawn) (X3-[ξDap]S[Dap](β3hOrn)[ΔDap(Z)]([CO-NH(4-cHex-phenyl)])[X1]; lactam 1-C),3.12,6.25,6.25
O=C(N/N=C/c1cccc2c(OCc3ccc(OC(F)(F)F)cc3)cccc12)c1ccc(O)c(Cl)c1,25,12.5,3.12
C[C@@H]1NC(=O)[C@@H](N)CNC(=O)[C@H](C2CCNC(=N)N2)NC(=O)/C(=C/NC(N)=O)NC(=O)[C@H](CNC(=O)CC(N)CCCN)NC1=O.N=C1NCCC([C@@H]2NC(=O)/C(=C/NC(N)=O)NC(=O)[C@H](CNC(=O)CC(N)CCCN)NC(=O)[C@H](CO)NC(=O)[C@@H](N)CNC2=O)N1 (stereo partly drawn) [CAPREOMYCIN] (H-[Dap]S[Dap](ξβ3hOrn)[ΔAla(Z-3-ureido)][X2]; lactam 1-C),100,> 1000,> 1000
NCCCNCCC(=O)NC1CNC(=O)[C@@H](C2CCN=C(N)N2)NC(=O)/C(=C/Nc2ccc(Cl)c(Cl)c2)NC(=O)[C@@H](CO)NC(=O)[C@@H](CO)NC1=O (stereo not given in full),50,50,50
NCC[C@@H](O)[C@H](N)CC(=O)NC1CNC(=O)[C@@H](C2CCN=C(N)N2)NC(=O)/C(=C/Nc2ccc(Cl)c(Cl)c2)NC(=O)[C@@H](CO)NC(=O)[C@@H](CO)NC1=O (stereo not given in full),12.5,50,25
NCC1NC(=O)[C@H](CO)NC(=O)[C@H](CO)NC(=O)C(NC(=O)Nc2ccc(C3CCCCC3)cc2)CNC(=O)[C@H](C2CCN=C(N)N2)NC1=O (stereo not given in full) ({NH(4-cHex-phenyl)-CO}-[ξDap]SS[ξDap][X1]; lactam 1-C),> 100,> 100,> 100
